Experiments:
lipoamide = compound: NC(=O)CCCCC1CCSS1 [lipoamide]; experiment: thermal stability z-score vs DMSO; higher = more thermally stabilized by treatment; details: HeLa, lipoamide concentration 100 µM
Method: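 Cellular thermal proteome profiling in HeLa cells. Cells were treated with 100 µM lipoamide for 1 h, with or without 1 mM arsenate for a further 1 h, then heated to ten temperatures (37-66.3 °C), and soluble protein was quantified by TMT mass spectrometry relative to 0.1% DMSO controls. The thermal stability score (sum of log2 fold changes minus the abundance score) was transformed to a z-score; mean of n = 3 experiments.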

potassium arsenate = compound: O=[As]([O-])(O)O.[K+] [potassium arsenate]; experiment: as above; details: HeLa; arsenate concentration 1 mM
Method: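 Cellular thermal proteome profiling in HeLa cells treated with 1 mM arsenate for 1 h (DMSO pretreatment), heated to ten temperatures (37-66.3 °C). Soluble protein was quantified by TMT mass spectrometry relative to DMSO controls; the thermal stability score was transformed to a z-score; mean of n = 3 experiments.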

[1] = arsenate co-treatment: 1 mM arsenate 1 h
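Further: each temperature applied for 3 min, abundance score taken as mean log2 fold change at the two lowest temperatures, z-score obtained by mean subtraction and division by SD.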

UniProt Q7Z6K3, sequence (Q7Z6K3 whole entry): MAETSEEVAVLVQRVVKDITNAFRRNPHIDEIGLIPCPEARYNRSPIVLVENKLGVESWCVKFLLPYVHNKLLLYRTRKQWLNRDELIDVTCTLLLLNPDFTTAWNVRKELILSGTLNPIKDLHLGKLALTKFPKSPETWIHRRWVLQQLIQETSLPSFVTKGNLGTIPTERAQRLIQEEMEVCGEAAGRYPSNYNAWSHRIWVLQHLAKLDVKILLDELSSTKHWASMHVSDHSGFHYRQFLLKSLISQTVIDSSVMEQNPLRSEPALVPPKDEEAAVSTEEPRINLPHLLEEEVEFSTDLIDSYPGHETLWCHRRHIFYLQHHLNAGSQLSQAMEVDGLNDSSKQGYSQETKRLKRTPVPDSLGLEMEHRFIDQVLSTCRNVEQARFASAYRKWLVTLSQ
UniProt Q96RU2, sequence (Q96RU2 whole entry): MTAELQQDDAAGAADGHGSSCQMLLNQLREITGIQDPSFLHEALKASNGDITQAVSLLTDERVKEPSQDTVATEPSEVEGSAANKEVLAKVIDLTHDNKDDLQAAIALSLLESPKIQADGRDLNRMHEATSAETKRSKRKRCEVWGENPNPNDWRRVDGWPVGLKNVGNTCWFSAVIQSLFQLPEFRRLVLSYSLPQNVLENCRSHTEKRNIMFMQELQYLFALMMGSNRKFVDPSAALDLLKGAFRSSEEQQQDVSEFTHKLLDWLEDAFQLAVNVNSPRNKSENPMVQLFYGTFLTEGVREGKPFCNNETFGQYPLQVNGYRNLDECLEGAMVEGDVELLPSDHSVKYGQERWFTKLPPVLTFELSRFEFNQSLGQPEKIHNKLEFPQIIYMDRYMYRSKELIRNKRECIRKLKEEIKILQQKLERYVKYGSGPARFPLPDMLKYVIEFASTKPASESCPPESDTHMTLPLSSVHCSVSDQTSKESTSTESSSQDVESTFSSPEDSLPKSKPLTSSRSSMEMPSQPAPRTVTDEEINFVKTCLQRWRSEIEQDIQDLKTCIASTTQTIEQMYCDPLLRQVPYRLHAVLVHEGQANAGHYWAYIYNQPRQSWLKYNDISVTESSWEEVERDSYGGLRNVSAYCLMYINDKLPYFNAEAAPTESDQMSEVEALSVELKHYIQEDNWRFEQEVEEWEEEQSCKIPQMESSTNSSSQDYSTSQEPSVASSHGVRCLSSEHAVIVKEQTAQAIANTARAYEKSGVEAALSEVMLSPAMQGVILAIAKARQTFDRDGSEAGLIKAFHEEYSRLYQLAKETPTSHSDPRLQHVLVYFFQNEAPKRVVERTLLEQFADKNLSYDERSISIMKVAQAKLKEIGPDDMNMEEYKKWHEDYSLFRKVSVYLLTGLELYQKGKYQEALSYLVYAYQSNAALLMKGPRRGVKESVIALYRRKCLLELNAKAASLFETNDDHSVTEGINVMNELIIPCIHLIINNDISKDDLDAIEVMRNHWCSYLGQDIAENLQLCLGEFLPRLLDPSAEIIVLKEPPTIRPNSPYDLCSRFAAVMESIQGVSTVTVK
UniProt Q96IZ6, sequence (Q96IZ6 whole entry): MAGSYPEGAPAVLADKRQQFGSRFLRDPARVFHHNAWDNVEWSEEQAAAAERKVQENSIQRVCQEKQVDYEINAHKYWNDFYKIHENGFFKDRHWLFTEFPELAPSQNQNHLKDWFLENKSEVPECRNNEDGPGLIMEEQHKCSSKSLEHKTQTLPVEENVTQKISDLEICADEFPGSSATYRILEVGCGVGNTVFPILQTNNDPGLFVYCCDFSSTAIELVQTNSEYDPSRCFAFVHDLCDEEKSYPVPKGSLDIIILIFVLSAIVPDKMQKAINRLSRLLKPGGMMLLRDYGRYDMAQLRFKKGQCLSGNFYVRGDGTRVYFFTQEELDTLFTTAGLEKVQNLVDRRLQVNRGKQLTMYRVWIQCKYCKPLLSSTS
UniProt Q93074, sequence (Q93074 whole entry): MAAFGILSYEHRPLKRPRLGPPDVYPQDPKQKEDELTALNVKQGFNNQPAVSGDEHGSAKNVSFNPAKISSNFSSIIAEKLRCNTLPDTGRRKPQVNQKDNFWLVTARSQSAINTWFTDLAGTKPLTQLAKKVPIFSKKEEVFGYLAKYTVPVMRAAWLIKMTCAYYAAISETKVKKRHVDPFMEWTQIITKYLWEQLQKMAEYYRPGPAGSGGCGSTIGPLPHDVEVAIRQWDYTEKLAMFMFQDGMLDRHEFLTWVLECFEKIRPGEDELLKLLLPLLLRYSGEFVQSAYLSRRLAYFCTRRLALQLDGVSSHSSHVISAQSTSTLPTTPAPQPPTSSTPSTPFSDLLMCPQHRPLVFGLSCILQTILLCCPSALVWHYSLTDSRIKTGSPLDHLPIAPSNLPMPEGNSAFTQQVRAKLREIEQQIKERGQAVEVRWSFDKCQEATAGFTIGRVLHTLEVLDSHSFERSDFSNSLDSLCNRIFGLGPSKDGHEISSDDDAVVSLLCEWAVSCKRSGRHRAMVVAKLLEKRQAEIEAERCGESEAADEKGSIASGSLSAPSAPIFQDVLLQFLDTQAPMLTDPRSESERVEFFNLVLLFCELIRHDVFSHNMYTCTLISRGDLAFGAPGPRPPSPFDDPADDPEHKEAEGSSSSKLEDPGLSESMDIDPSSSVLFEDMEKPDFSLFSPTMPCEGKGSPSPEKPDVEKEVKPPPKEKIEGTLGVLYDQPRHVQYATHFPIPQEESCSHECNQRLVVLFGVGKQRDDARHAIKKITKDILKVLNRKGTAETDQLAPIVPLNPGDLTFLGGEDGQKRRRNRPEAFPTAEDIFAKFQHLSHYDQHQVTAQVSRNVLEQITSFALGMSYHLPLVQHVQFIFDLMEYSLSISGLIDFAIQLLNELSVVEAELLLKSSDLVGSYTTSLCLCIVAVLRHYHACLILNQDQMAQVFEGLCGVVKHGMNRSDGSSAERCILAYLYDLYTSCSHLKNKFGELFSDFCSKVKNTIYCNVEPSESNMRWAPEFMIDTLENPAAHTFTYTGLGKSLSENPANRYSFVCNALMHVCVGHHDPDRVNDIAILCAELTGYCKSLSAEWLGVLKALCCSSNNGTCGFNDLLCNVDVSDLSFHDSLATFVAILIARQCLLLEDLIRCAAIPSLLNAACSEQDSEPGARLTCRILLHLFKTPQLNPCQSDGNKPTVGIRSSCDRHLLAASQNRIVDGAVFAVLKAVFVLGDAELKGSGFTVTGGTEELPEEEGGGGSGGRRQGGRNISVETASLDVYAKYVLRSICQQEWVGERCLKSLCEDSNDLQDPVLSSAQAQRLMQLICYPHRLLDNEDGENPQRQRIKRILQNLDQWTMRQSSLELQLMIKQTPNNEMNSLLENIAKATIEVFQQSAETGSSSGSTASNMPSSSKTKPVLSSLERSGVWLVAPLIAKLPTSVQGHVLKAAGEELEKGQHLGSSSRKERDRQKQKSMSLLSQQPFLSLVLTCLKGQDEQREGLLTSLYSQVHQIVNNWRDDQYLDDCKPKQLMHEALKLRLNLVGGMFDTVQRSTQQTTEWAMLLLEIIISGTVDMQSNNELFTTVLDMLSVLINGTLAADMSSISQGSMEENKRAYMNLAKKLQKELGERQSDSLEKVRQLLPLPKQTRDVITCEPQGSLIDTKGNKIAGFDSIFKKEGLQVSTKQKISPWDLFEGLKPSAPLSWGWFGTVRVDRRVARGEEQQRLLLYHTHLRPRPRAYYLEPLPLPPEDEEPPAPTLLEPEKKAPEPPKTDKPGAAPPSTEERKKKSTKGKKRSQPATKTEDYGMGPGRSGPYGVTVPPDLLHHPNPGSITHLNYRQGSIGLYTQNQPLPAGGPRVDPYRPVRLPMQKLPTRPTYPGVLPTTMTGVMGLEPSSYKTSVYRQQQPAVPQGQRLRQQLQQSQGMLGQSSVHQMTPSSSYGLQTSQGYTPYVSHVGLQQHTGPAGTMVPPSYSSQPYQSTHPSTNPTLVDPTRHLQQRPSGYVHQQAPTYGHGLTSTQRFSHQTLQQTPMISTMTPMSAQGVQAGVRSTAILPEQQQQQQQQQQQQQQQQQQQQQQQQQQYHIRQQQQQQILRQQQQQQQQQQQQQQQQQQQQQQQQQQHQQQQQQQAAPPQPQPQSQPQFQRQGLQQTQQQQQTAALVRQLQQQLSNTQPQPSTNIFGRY
UniProt Q96DX4, sequence (Q96DX4 whole entry): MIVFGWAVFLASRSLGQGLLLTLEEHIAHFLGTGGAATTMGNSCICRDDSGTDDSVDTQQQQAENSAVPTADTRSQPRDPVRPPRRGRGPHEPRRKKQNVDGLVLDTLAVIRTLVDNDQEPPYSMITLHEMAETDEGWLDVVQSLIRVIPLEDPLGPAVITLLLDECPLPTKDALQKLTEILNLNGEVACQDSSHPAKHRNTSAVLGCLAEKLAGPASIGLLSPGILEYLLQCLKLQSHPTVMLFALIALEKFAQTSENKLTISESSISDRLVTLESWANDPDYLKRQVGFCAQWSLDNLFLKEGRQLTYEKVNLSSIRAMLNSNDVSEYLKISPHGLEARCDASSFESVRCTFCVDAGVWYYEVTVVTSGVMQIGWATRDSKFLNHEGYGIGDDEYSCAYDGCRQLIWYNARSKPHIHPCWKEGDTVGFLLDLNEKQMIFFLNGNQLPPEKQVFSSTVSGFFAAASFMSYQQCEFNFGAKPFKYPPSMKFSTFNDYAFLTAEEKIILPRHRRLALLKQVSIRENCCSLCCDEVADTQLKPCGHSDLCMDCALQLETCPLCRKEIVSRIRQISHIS
UniProt Q7L3B6, sequence (Q7L3B6 whole entry): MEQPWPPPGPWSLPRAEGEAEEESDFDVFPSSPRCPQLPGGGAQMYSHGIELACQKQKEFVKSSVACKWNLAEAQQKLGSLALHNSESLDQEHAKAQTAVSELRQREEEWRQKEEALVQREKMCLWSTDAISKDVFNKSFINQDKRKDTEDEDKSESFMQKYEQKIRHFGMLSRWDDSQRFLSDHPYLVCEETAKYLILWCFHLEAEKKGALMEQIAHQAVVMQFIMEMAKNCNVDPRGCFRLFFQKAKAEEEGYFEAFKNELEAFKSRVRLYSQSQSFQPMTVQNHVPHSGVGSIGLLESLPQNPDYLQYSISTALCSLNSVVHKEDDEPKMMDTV

Target | thermal stability z-score (lipoamide; [1]) | thermal stability z-score (lipoamide; arsenate co-treatment: none) | thermal stability z-score (potassium arsenate)
USP28 (UniProt Q96RU2) | -0.088 | -0.175 | -0.158
RBKS (UniProt Q9H477) | -0.0153 | -0.521 | 0.335
LRBA (UniProt P50851) | 0.015 | 0.0915 | 0.326
CDC37L1 (UniProt Q7L3B6) | -0.275 | -0.0638 | 0.23
EIF2B4 (UniProt Q9UI10) | -0.154 | 0.0556 | 0.533
CELSR2 (UniProt Q9HCU4) | -1.53 | -2.3 | -0.894
RAB3GAP1 (UniProt Q15042) | -0.562 | -0.113 | 0.764
MED12 (UniProt Q93074) | -0.255 | -0.248 | 0.0377
GSPT1 (UniProt P15170) | -0.00711 | 0.472 | 0.226
ZC3H4 (UniProt Q9UPT8) | 0.112 | -0.278 | -1.7
LEMD3 (UniProt Q9Y2U8) | 0.161 | 0.209 | -0.685
RSPRY1 (UniProt Q96DX4) | 0.302 | 0.576 | -0.152
PTAR1 (UniProt Q7Z6K3) | 0.548 | 0.408 | 0.1
IRS2 (UniProt Q9Y4H2) | -0.525 | -0.112 | -1.42
SEC24A (UniProt O95486) | -0.232 | -0.0421 | 0.178
METTL2A (UniProt Q96IZ6) | 0.394 | 0.528 | -0.0971
SYDE1 (UniProt Q6ZW31) | -0.177 | -0.208 | -0.278
BCAR1 (UniProt P56945) | -0.559 | -0.583 | -0.154

Reference: the supplement of paper PMC12463676, “Small-molecule dissolution of stress granules by redox modulation benefits ALS models” (Nature Chemical Biology, 2025)
